The record followed here is patent publication US20030013660A1, “Dioxolane analogs for improved inter-cellular delivery” (Shire BioChem Inc., priority 2000, published 2003).

Where only a bound is given, the exact number is not on record here.

In assay [1] the test system is CEM/dCK-. Kind of assay: MTT or WST-1 assay at 72 hr (24 hr drug exposure, wash, 48 hr). Type of assay: cell-based. How it is done: Exposition of 24hr to drug, washed, and incubated for another 48hr (total of 72hr assay)
Another assay concerns H-460. The experiment in a line: 3H-TdR incorporation at 72 hr (24 hr drug exposure, wash, 48 hr). Conditions: Homo sapiens, NCI-H460, read-out: IC50 in μM (3H-TdR incorporation at 72 hr) H-460 24 h, H-460 Human Lung Carcinoma, 72 hr assay. Type of assay: cell-based, Human. How it is done:
(§1) Exposition of 24 hr to drug, wash, incubated for another 48 hr (total of 72 hr assay)
(§2) (3H-Thymidine Incorporation Assay)

Another assay concerns MCF-7. The assay is described as above. The settings on record: Homo sapiens, MCF7, read-out: IC50 in μM (3H-TdR incorporation at 72 hr) MCF-7 24 h, MCF-7 Human Breast Carcinoma, 72 hr assay. Type of assay: cell-based, Human. The protocol:
as §1, §2

Another assay concerns SF-268. The assay is described as above. Type of assay: cell-based, Human. Conditions: Homo sapiens, SF-268, read-out: IC50 in μM (3H-TdR incorporation at 72 hr) SF-268 24 h, SF-268 Human Central Nervous System Tumor; 24 h drug exposure, 72 hr assay. How it is done: as §1, §2
The next assay relates to CCRF-CEM. Described as above. It is filed as cell-based. Conditions: Homo sapiens, CCRF-CEM, read-out: IC50 in μM (3H-TdR incorporation at 72 hr) CCRF-CEM 24 h, CCRF-CEM T-cell Leukemia, 72 hr assay. How it is done:
as §1, §2

Assay [2] deals with CEM/dCK-. The assay is described as above. It is filed as cell-based. Conditions: for IC50: Homo sapiens, CCRF-CEM, read-out: IC50 in μM (3H-TdR incorporation at 72 hr) CEM/dCK- 24 h, CCRF-CEM deoxycytidine kinase-deficient, 24 h drug exposure, 72 hr assay; for Factor* (Resistance Factor = Ratio of dCK- on Wild-type CCRF-CEM): ratio of IC50 CEM/dCK- to IC50 CCRF-CEM. How it is done: as §1, §2

Where [3] appears, read: read-out: IC50 CEM/dCK- 24 h, MMT or WST-1 at 72 hr, 24 h exposure, single experiment.
Setting [4] is: read-out: IC50 CEM/dCK- 24 h; MMT or WST-1 at 72 hr, 24 h exposure, single experiment.

For `CCC(CCCCCCc1ccccc1)C(=O)OC[C@H]1OC[C@@H](n2ccc(N)nc2=O)O1` (some centres unmarked) [Compound 266, 2-ETHYL-8-PHENYL- OCTANOIC ACID 4-(4- AMINO-2-OXO-2H- PYRIMIDIN-1-YL)- [1,3]DIOXOLAN-2- YLMETHYL ESTER], the values for the IC50 in the assay with CEM/dCK- [1] (setting [3]) and in the assay on CEM/dCK- [1] (setting [4]) were 21000 nM and 26000 nM, respectively.

On to `O=c1nc(/N=C2/CCCN2Cc2ccccc2)ccn1[C@@H]1CO[C@H](CO)O1` (stereo in doubt) [Compound 236, 4-(1-BENZYL-PYRROLIDIN- 2-YLIDENEAMINO)-1-(2- HYDROXYMETHYL- [1,3]DIOXOLAN-4-YL)-1H- PYRIMIDIN-2-ONE], for which the IC50 was 3.7 µM in the assay with H-460; 8.6 µM in the assay on MCF-7; 0.12 µM in the assay on SF-268; 5.1 µM with CCRF-CEM; > 100 µM with CEM/dCK- [2]. Moreover, the “Factor* (Resistance Factor = Ratio of dCK- on Wild-type CCRF-CEM)” value with CEM/dCK- [2] is given as >20.

As for `Nc1ccn([C@@H]2CO[C@H](COC(=S)Sc3ccccc3)O2)c(=O)n1` [Compound 205, DITHIOCARBONIC ACID O- [4-(4-AMINO-2-OXO-2H- PYRIMIDIN-1-YL)- [1,3]DIOXOLAN-2-YL METHYL] ESTER S-PHENYL ESTER], the IC50 in the assay with H-460 was 0.28 µM; in the assay on MCF-7, 0.9 µM; in the assay with SF-268, 0.1 µM; in the assay with CCRF-CEM it was 0.26 µM; with CEM/dCK- [2] it was > 100 µM. Moreover, the “Factor* (Resistance Factor = Ratio of dCK- on Wild-type CCRF-CEM)” value in the assay with CEM/dCK- [2] is reported as >385.

Turning to `CC(C)(C)OC(=O)NCCCCCC(=O)Nc1ccn([C@@H]2CO[C@H](COC(=O)CCCCCNC(=O)OC(C)(C)C)O2)c(=O)n1` [Compound 192, 6-TERT!- BUTOXYCARBONYLAMINO- HEXANOIC ACID 4-[4-(6- TERT- BUTOXYCARBONYLAMINO- HEXANOYLAMINO)-2-OXO- 2H-PYRIMIDIN-1-YL]- [1,3]DIOXOLAN-2-YL METHYL ESTER], the IC50 with H-460 worked out at 0.29 µM; with MCF-7 it was 0.0016 µM; in the assay on SF-268 it was 0.4 µM; in the assay on CCRF-CEM, 0.0084 µM; in the assay with CEM/dCK- [2], 48 µM. For the same compound, the “Factor* (Resistance Factor = Ratio of dCK- on Wild-type CCRF-CEM)” value in the assay on CEM/dCK- [2] was 5,714.

Regarding `C#CCOC[C@H]1OC[C@@H](n2ccc(N)nc2=O)O1` [Compound 173, (S,S)-4-AMINO-1-(2′- PROP-2′-YNYLOXYMETHYL- [1,3]DIOXOLAN-4′-YL)- 1H-PYRIMIDIN-2-ONE], the IC50 in the assay on H-460 was 6.1 µM; with MCF-7, 17 µM; in the assay with SF-268 it was 2 µM; in the assay on CCRF-CEM, 2.6 µM; with CEM/dCK- [2], > 100 µM. For the same compound, in the assay with CEM/dCK- [2], the “Factor* (Resistance Factor = Ratio of dCK- on Wild-type CCRF-CEM)” value is >38.

`CC(C)Cc1ccc([C@H](C)C(=O)OC[C@H]2OC[C@@H](n3ccc(N)nc3=O)O2)cc1` [Compound 243, 2-(4-ISOBUTYL-PHENYL)- PROPIONIC ACID 4-(4- AMINO-2-OXO-2H- PYRIMIDIN-1-YL)- [1,3]DIOXOLAN-2-YL METHYL ESTER]: the IC50 in the assay with H-460 was found to be 0.0011 µM; in the assay with MCF-7, 0.0005 µM; with SF-268, 0.32 µM; in the assay with CCRF-CEM, 0.027 µM; in the assay on CEM/dCK- [2] it was 72 µM. Moreover, the “Factor* (Resistance Factor = Ratio of dCK- on Wild-type CCRF-CEM)” value with CEM/dCK- [2] is listed as 2,667.

For the compound `C/C(=N\c1ccn([C@@H]2CO[C@H](CO)O2)c(=O)n1)N(C)C` [Compound 228, N′-[1-(2-HYDROXYMETHYL- [1,3]DIOXOLAN-4-YL)-2- OXO-1,2-DIHYDRO- PYRIMIDIN-4-YL]-N,N- DIMETHYL-ACETAMIDINE], the IC50 with H-460 is 0.68 µM; with MCF-7 it was 1.5 µM; with SF-268, 5.3 µM; in the assay on CCRF-CEM, 0.44 µM; in the assay on CEM/dCK- [2], > 100 µM. Further, in the assay on CEM/dCK- [2], the “Factor* (Resistance Factor = Ratio of dCK- on Wild-type CCRF-CEM)” value was >227.

For the compound `Nc1ccn([C@@H]2CO[C@H](COC(=O)c3ccccc3Cl)O2)c(=O)n1` [Compound 206, 2-CHLORO-BENZOIC ACID 4-(4-AMINO-2-OXO-2#H!- PYRIMIDIN-1-YL)- [1,3]DIOXOLAN-2-YL METHYL ESTER], the IC50 with H-460 was 0.012 µM; in the assay on MCF-7, 0.056 µM; in the assay with SF-268 it was 0.043 µM; in the assay with CCRF-CEM, 0.009 µM; in the assay on CEM/dCK- [2], 80 µM. For the same compound, in the assay with CEM/dCK- [2], the “Factor* (Resistance Factor = Ratio of dCK- on Wild-type CCRF-CEM)” value was 8,889.

Take `COC(OC)(OC[C@H]1OC[C@@H](n2ccc(N)nc2=O)O1)c1ccc(C)cc1` [Compound 200, 4-AMINO-1-[2- (DIMETHOXY-#P!-TOLYL- METHOXYMETHYL)- [1,3]DIOXOLAN-4-YL]- 1#H!-PYRIMIDIN-2-ONE]: the IC50 in the assay on H-460 came out at 0.3 µM; with MCF-7 it was 1.1 µM; in the assay on SF-268, 0.12 µM; in the assay with CCRF-CEM, 0.31 µM; in the assay with CEM/dCK- [2] it was 72 µM. In addition, the “Factor* (Resistance Factor = Ratio of dCK- on Wild-type CCRF-CEM)” value in the assay with CEM/dCK- [2] came to 232.

With `O=C(Nc1ccn([C@@H]2CO[C@H](CO)O2)c(=O)n1)C(c1ccccc1)c1ccccc1` [Compound 241, N-[1-(2-HYDROXYMETHYL- [1,3]DIOXOLAN-4-YL)-2- OXO-1,2-DIHYDRO- PYRIMIDIN-4-YL]-2,2- DIPHENYL-ACETAMIDE], the IC50 in the assay on H-460 was 0.047 µM; with MCF-7 it was 0.17 µM; in the assay on SF-268, 14 µM; in the assay on CCRF-CEM, 1.4 µM; in the assay on CEM/dCK- [2] it was ≥ 100 µM. In the assay with CEM/dCK- [2], the “Factor* (Resistance Factor = Ratio of dCK- on Wild-type CCRF-CEM)” value is given as “≧74”.

As for `CC(C)(C)c1cc(C(=O)OC[C@H]2OC[C@@H](n3ccc(N)nc3=O)O2)cc(C(C)(C)C)c1` [Compound 186, 3,5-DI-TERT-BUTYL- BENZOIC ACID 4-(4- AMINO-2-OXO-2H- PYRIMIDIN-1-YL)- [1,3]DIOXOLAN-2- YLMETHYL ESTER], the IC50 with CEM/dCK- [1] (setting [3]) was 26000 nM; in the assay on CEM/dCK- [1] (setting [4]), 14000 nM; in the assay with CEM/dCK- [2], > 100 µM.

Regarding `Nc1ccn([C@@H]2CO[C@H](COC(=O)c3ccccc3)O2)c(=O)n1` [Compound 163, BENZOIC ACID 4-(4- AMINO-2-OXO-2H- PYRIMIDIN-1-YL)- [1,3]DIOXOLAN-2- YLMETHYL ESTER], the IC50 in the assay on H-460 is 0.0092 µM; in the assay with MCF-7, 0.033 µM; with SF-268 it was 0.025 µM; in the assay on CCRF-CEM it was 0.0033 µM; with CEM/dCK- [2] it was 27 µM. In the assay on CEM/dCK- [2], the “Factor* (Resistance Factor = Ratio of dCK- on Wild-type CCRF-CEM)” value is 8,182.

Regarding `O=C(NCNc1ccn([C@@H]2CO[C@H](CO)O2)c(=O)n1)c1ccccc1` [Compound 165, N-{[1-(2-HYDROXYMETHYL- [1,3]DIOXOLAN-4-YL)-2- OXO-1,2-DIHYDRO- PYRIMIDIN-4-YLAMINO]- METHYL}-BENZAMIDE], the IC50 in the assay on H-460 is 3.4 µM; in the assay with MCF-7, 10 µM; in the assay with SF-268 it was 16 µM; in the assay on CCRF-CEM, 1.8 µM; with CEM/dCK- [2], > 100 µM. Also, in the assay on CEM/dCK- [2], the “Factor* (Resistance Factor = Ratio of dCK- on Wild-type CCRF-CEM)” value is >56.

Turning to `Cc1ccc(C)c(OCCCC(C)(C)C(=O)Nc2ccn([C@@H]3CO[C@H](CO)O3)c(=O)n2)c1` [Compound 234, 5-(2,5-DIMETHYL- PHENOXY)-2,2-DIMETHYL- PENTANOIC ACID [1-(2- HYDROXYMETHYL- [1,3]DIOXOLAN-4-YL)-2- OXO-1,2-DIHYDRO- PYRIMIDIN-4-YL]-AMIDE], the IC50 in the assay on H-460 was 1.5 µM; in the assay on MCF-7, 0.1 µM; in the assay on SF-268, 0.1 µM; in the assay with CCRF-CEM, 0.95 µM; in the assay on CEM/dCK- [2] it was > 100 µM. For the same compound, the “Factor* (Resistance Factor = Ratio of dCK- on Wild-type CCRF-CEM)” value with CEM/dCK- [2] was >105.
